Test results taken from patent publication US9700516B2, “Compositions and methods for reducing overdose” (priority 2014, dated 2017).

Assay: Effect of alkalinizing agents on the pH of a solution of 0.1 N HCl with a starting pH of 2.0
Format: physicochemical
Protocol: Various alkalinizing agents were added to a solution of 0.1 N HCl with a starting pH of 2.0 and the pH of the solution was tested at different time points.

Structure (SMILES): [Mg+2].[OH-].[OH-] [magnesium hydroxide]
- pH (60 mg per 320 mL, 2 min): 2.29
- pH (60 mg per 320 mL, 3 min): 2.41
- pH (60 mg per 320 mL, 4 min): 2.47
- pH (60 mg per 320 mL, 5 min): 2.48
- pH (60 mg per 320 mL, 6 min): 2.48
- pH (60 mg per 320 mL, 7 min): 2.49
- pH (60 mg per 320 mL, 8 min): 2.49
- pH (60 mg per 320 mL, 9 min): 2.49
- pH (60 mg per 320 mL, 10 min): 2.49
- pH (60 mg per 320 mL, 20 min): 2.50
- pH (60 mg per 500 mL, 2 min): 2.12
- pH (60 mg per 500 mL, 3 min): 2.17
- pH (60 mg per 500 mL, 4 min): 2.18
- pH (60 mg per 500 mL, 5 min): 2.19
- pH (60 mg per 500 mL, 6 min): 2.19
- pH (60 mg per 500 mL, 7 min): 2.19
- pH (60 mg per 500 mL, 8 min): 2.19
- pH (60 mg per 500 mL, 9 min): 2.19
- pH (60 mg per 500 mL, 10 min): 2.19
- pH (60 mg per 500 mL, 20 min): 2.19
- effect on pH of the solution (71 mg/200 ml, 81 mg/200 ml and 100 mg/200 ml): raised the pH of the solution to neutral or higher
- pH (90 mg per 320 mL, 2 min): 2.37
- pH (90 mg per 320 mL, 3 min): 2.55
- pH (90 mg per 320 mL, 4 min): 2.77
- pH (90 mg per 320 mL, 5 min): 3.06
- pH (90 mg per 320 mL, 6 min): 3.13
- pH (90 mg per 320 mL, 7 min): 3.22
- pH (90 mg per 320 mL, 8 min): 3.28
- pH (90 mg per 320 mL, 9 min): 3.31
- pH (90 mg per 320 mL, 10 min): 3.33
- pH (90 mg per 320 mL, 20 min): 3.34
- pH (100 mg per 320 mL, 2 min): 2.36
- pH (100 mg per 320 mL, 3 min): 2.53
- pH (100 mg per 320 mL, 4 min): 2.74
- pH (100 mg per 320 mL, 5 min): 3.07
- pH (100 mg per 320 mL, 6 min): 3.39
- pH (100 mg per 320 mL, 7 min): 3.73
- pH (100 mg per 320 mL, 8 min): 4.26
- pH (100 mg per 320 mL, 9 min): 5.41
- pH (100 mg per 320 mL, 10 min): 5.86
- pH (100 mg per 320 mL, 20 min): 6.51
- pH (100 mg per 500 mL, 2 min): 2.21
- pH (100 mg per 500 mL, 3 min): 2.33
- pH (100 mg per 500 mL, 4 min): 2.38
- pH (100 mg per 500 mL, 5 min): 2.40
- pH (100 mg per 500 mL, 6 min): 2.40
- pH (100 mg per 500 mL, 7 min): 2.41
- pH (100 mg per 500 mL, 8 min): 2.41
- pH (100 mg per 500 mL, 9 min): 2.41
- pH (100 mg per 500 mL, 10 min): 2.41
- pH (100 mg per 500 mL, 20 min): 2.41
- effect on pH of the solution (100 mg/320 ml, 180 mg/500 ml, 120 mg/320 ml, 200 mg/500 ml and 240 mg/500 ml): rapidly raised the pH of the solution to neutral or higher
- pH (120 mg per 320 mL, 2 min): 2.49
- pH (120 mg per 320 mL, 3 min): 2.87
- pH (120 mg per 320 mL, 4 min): 3.54
- pH (120 mg per 320 mL, 5 min): 5.75
- pH (120 mg per 320 mL, 6 min): 6.65
- pH (120 mg per 320 mL, 7 min): 7.81
- pH (120 mg per 320 mL, 8 min): 8.55
- pH (120 mg per 320 mL, 9 min): 8.83
- pH (120 mg per 320 mL, 10 min): 8.94
- pH (120 mg per 320 mL, 20 min): 9.20
- pH (120 mg per 500 mL, 2 min): 2.21
- pH (120 mg per 500 mL, 3 min): 2.35
- pH (120 mg per 500 mL, 4 min): 2.44
- pH (120 mg per 500 mL, 5 min): 2.52
- pH (120 mg per 500 mL, 6 min): 2.57
- pH (120 mg per 500 mL, 7 min): 2.59
- pH (120 mg per 500 mL, 8 min): 2.59
- pH (120 mg per 500 mL, 9 min): 2.59
- pH (120 mg per 500 mL, 10 min): 2.59
- pH (120 mg per 500 mL, 20 min): 2.60
- effect on pH of the solution (160 mg/320 ml (0.5 mg/ml)): rapidly raised the pH of the solution to neutral or higher
- pH (180 mg per 500 mL, 2 min): 2.56
- pH (180 mg per 500 mL, 3 min): 3.09
- pH (180 mg per 500 mL, 4 min): 3.90
- pH (180 mg per 500 mL, 5 min): 5.69
- pH (180 mg per 500 mL, 6 min): 6.28
- pH (180 mg per 500 mL, 7 min): 6.64
- pH (180 mg per 500 mL, 8 min): 7.01
- pH (180 mg per 500 mL, 9 min): 7.61
- pH (180 mg per 500 mL, 10 min): 8.25
- pH (180 mg per 500 mL, 20 min): 9.07
- pH (200 mg per 500 mL, 2 min): 2.48
- pH (200 mg per 500 mL, 3 min): 2.81
- pH (200 mg per 500 mL, 4 min): 3.54
- pH (200 mg per 500 mL, 5 min): 5.42
- pH (200 mg per 500 mL, 6 min): 6.63
- pH (200 mg per 500 mL, 7 min): 7.99
- pH (200 mg per 500 mL, 8 min): 8.86
- pH (200 mg per 500 mL, 9 min): 9.07
- pH (200 mg per 500 mL, 10 min): 9.18
- pH (200 mg per 500 mL, 20 min): 9.41
- pH (240 mg per 500 mL, 2 min): 2.54
- pH (240 mg per 500 mL, 3 min): 3.14
- pH (240 mg per 500 mL, 4 min): 5.90
- pH (240 mg per 500 mL, 5 min): 7.73
- pH (240 mg per 500 mL, 6 min): 9.09
- pH (240 mg per 500 mL, 7 min): 9.35
- pH (240 mg per 500 mL, 8 min): 9.47
- pH (240 mg per 500 mL, 9 min): 9.54
- pH (240 mg per 500 mL, 10 min): 9.59
- pH (240 mg per 500 mL, 20 min): 9.71
- pH of the solution (all tested amounts, over the times tested): above 2.0
